Measured values taken from US9645136B2, “Methods of treating a meiotic kinesin-associated disease” (DANA-FARBER CANCER INSTITUTE, INC., priority 2008, dated 2017).

What was measured:
S2 cells [1] = assay: Centrosome clustering defects in S2 cells after short drug treatment; format: cell-based, Drosophila
Method: In addition to genes that likely contribute to the bundling and organization of spindle MTs, unexpectedly, genes involved in the organization and regulation of the actin cytoskeleton, such as the formin Form3/INF2 were also identified (Chhabra, E. S. and Higgs, H. N. (2006) J Biol Chem 281:26754-26767). […] Experiments using a brief (2 hr) treatment with small molecules that disrupt the actin cytoskeleton similarly induce multipolar mitoses.
More specifically, cells were treated with Latrunculin (40 μM LatA), Cytochalasin D (20 μM) for 2 hours and the percentage of centrosome clustering defects was determined.
Next, it was determined if cortical contraction is required for centrosome clustering. Cells were exposed, for 2 hours, to soluble tetravalent lectin concanavalin A (Con-A), which crosslinks the plasma membrane and thus globally blocks cortical contraction (Canman, J. C. and Bement, W. M. (1997) J Cell Sci 110 (Pt 16):1907-1917). The percentage of centrosome clustering defects after Con-A treatment was determined.
Low concentrations of calyculin A (CA) inhibit the myosin light chain phosphatase (MLCP) and promote myosin II activation without altering its distribution (Gupton, S. M. and Waterman-Storer, C. M. (2006) Cell 125:1361-1374). […] Thus, in cells with extra centrosomes, actin and actin-based contractility influence whether mitosis is bipolar or multipolar.
It was also determined whether the actin and intrinsic spindle forces act cooperatively to prevent multipolar mitoses. […] To farther evaluate this idea, time-lapse spinning disc microscopy was used to define the trajectory of centrosome movement in Ned-depleted S2 cells. […] Moreover, the bulk of the centrosome movement was directed away from the spindle and towards the cell cortex. […] Thus, cortical forces collaborate with intrinsic spindle bundling forces to organize multiple centrosomes.

MDA-231 cells = assay: Multipolar spindles in MDA-231 cells; format: cell-based
Method: The parallel between Drosophila and mammalian cells extended to the genetic requirements for centrosome clustering. To examine this further, siRNA experiments were performed with mammalian HSET (Ned homolog) and Myo10 genes, as follows. Mixed pools (ON-TARGETplus and SMART pools) of 4 different oligos of siRNAs against human HSET, human Myo10 and mouse Myo10 were purchased from Dharmacon, siRNA against mouse HSET was purchased from Ambion. Non-specific scrambled siRNA was used as control (Ambion). The oligo sequence of the siRNAs are set forth below in Table 2:
Cells were transfected with Lipofectamine RNAiMAX (Invitrogen) with a final siRNA concentration of 50 nM according to the manufacturer's instructions. Cells were analyzed/harvested three days after transfection (unless specified otherwise). FIGS. 5 and 6 show the results of Western blots showing the depletion of HSET (FIG. 5) or Myo10 (FIG. 6) after three days of siRNA in MDA-231 and MCF-7 cells. FIG. 7 is a bar graph showing the percentage of cells with multipolar spindles in MCF-7 or MDA-231 cells upon treatment with siRNA of HSET or Myo10. […] As in S2 cells, Myo10-induced multipolarity is not a consequence of cytokinesis failure.
Several lines of evidence support this hypothesis. First, live-cell imaging was used to correlate interphase cell shape with the pattern of cell division during mitosis. MDA-231 (breast cancer cells containing extra centrosomes) that assumed an elongated or polarized shape in interphase, almost uniformly underwent bipolar divisions. […] Second, in tetraploid BSC-1 cells, whose thick RFs are readily visualized by DIC imaging, it was noted that a strong correlation between the positioning of the RFs and whether cells underwent a bipolar (bipolar distribution of RFs) or multipolar division (isotropic distribution of RFs). Third, RFs accumulate specific proteins, such as the ERM protein ezrin, which are implicated in cortical heterogeneity and thus local force generation on astral MTs. […]

[2] = system: MDA-231, MMEDX 4N and N1E-115; assay: Multipolar spindles after transient actin or astral MT disruption, cell lines with multiple centrosomes; format: cell-based
Method: (§1) To determine the effect of transient actin disruption in mammalian cells, the cell lines MCF-7, MDA-231, MMEDX 4N and N1E-115 were treated with DMSO, LatA (5 μM) or Dihydrocytochalasin B (DCB) (10 μM) for 2 hours. The MCF-7 cell line contains 2 centrosomes whereas the other cell lines contain greater than 2 centrosomes. […] These multipolar spindles result from declustering of extra centrosomes and were not due to the splitting/fragmentation of centrioles. Actin presumably influences centrosome positioning via forces on astral MTs.

S2 cells [3] = assay: Live cell imaging of centrosome clustering in S2 cells; format: cell-based, Drosophila
Method: Relative to controls (14.7±6.4 min), there was a 1.5 fold delay in centrosome clustering in 13/15 LatA-treated cells (22.1±12.3 min). […] The cell cycle delay induced by LatA treatment is likely due to activation of the SAC, as evidenced by prominent labeling of kinetochores with BubR1 in LatA-treated cells.

MCF-7 = assay: Multipolar spindles in cells with normal centrosome number; format: cell-based; conditions: cells plated on FN 30 μg/ml
Method: as §1
Cells were transfected with Lipofectamine RNAiMAX (Invitrogen) with a final siRNA concentration of 50 nM according to the manufacturer's instructions. Cells were analyzed/harvested three days after transfection (unless specified otherwise). FIGS. 5 and 6 show the results of Western blots showing the depletion of HSET (FIG. 5) or Myo10 (FIG. 6) after three days of siRNA in MDA-231 and MCF-7 cells. […]
Several lines of evidence support this hypothesis. […] Second, in tetraploid BSC-1 cells, whose thick RFs are readily visualized by DIC imaging, it was noted that a strong correlation between the positioning of the RFs and whether cells underwent a bipolar (bipolar distribution of RFs) or multipolar division (isotropic distribution of RFs). […]

[4] = 2 hours, LatA 5 μM, DCB 10 μM, vs DMSO

COC[C@@H]([C@H](O)[C@H](O)C(=O)NCC[C@H](C)c1nc(/C=C/C[C@@H]2O[C@]3(C[C@@H](O)[C@@H]2C)O[C@H]([C@H](C[C@H](O)[C@H](C)[C@H](O)[C@H](C)/C=C(C)/C(C)=C/C=C/C(C)=C\C#N)OC)[C@H](OP(=O)(O)O)C3(C)C)co1)N(C)C [CA, calyculin A]
centrosome clustering defect induced by Ned RNAi (S2 cells [1]; CA treatment of Ned RNAi cells): partially rescued
centrosome clustering defects (S2 cells [1]; wild type S2 cells, low concentration CA, 15% without): 9%
FN-induced increase of multipolar spindles (MDA-231 cells; CA added to cells plated on FN 30 μg/ml): reversed

C=C1[C@@H](C)[C@H]2[C@H](Cc3ccccc3)NC(=O)[C@]23OC(=O)CC[C@H](O)CCC[C@@H](C)C/C=C/[C@H]3[C@@H]1O [Dihydrocytochalasin B]
frequency of multipolar spindles [2, 4]: significant increase

C/C1=C/C(=O)O[C@@H]2C[C@@H](CC[C@H](C)/C=C\C=C\CC1)O[C@@](O)([C@@H]1CSC(=O)N1)C2 [LatA, Latrunculin]
spindle multipolarity (S2 cells [1]; LatA treatment in Ned or Bj1/RCC1-depleted cells): combinatorial increase
delay in centrosome clustering relative to controls (S2 cells [3]; 13/15 LatA-treated cells): 1.5 fold
time of centrosome clustering (S2 cells [3]; 13/15 LatA-treated cells, controls 14.7±6.4 min): 22.1 ± 12.3 min
cells that completely failed to cluster extra centrosomes (S2 cells [3]; LatA-treated cells): 2/15
frequency of multipolar spindles [2, 4]: significant increase

CC(C)(C)n1nc(-c2ccc(Cl)cc2)c2c(N)ncnc21 [PP2]
multipolar spindles (MDA-231 cells; src kinase inhibitor PP2): induced multipolar spindles

COC(=O)Nc1nc2ccc(C(=O)c3cccs3)cc2[nH]1 [nocodazole]
frequency of multipolar spindles ([2]; low dose nocodazole, cells with extra centrosomes): increased the frequency of multipolar spindles

concanavalin A [Con-A]
centrosome clustering defects / multipolar mitoses (S2 cells [1]; 2 hours treatment): induced centrosome clustering defects

fibronectin [FN]
frequency of multipolar spindles (MCF-7): not in MCF-7 cells
frequency of multipolar spindles (MDA-231 cells; cells plated on FN 30 μg/ml): increased the frequency of multipolar spindles
